Key:
THX cells [1] = assay: Light-induced (PCI) transfection of THX cells with pEGFP-N1/polylysine complex, GFP expression by flow cytometry; format: cell-based, human; settings: for "light before" approach compared with "light after" approach, poly-L-lysine mediated transfection: photosensitiser 2 μg/ml TPPS2a or 75 μg/ml TPPS4, pEGFP-N1/PLL complex 4 h
Description: (§1) The human melanoma cell line THX was established from tumour tissue obtained from a patient treated for metastatic malignant melanoma at the Norwegian Radium Hospital (Aamdal et al., 1986., Int. J. Cancer, 37, 579), and grown in RMPI 1640 (Gibco-BRL) supplemented with 10% FCS (Gibco-BRL) and 2 mM glutamine (Gibco-BRL). The human colon carcinoma cell line HCT 116 was obtained from American Type Culture Collection (ATCC no. CCL-247) and grown in RPMI 1640 medium supplemented with 10% foetal calf serum, 100 U/ml penicillin, […] streptomycin and 2 mM glutamine (all Gibco BRL, Paisley, UK).
Two different light sources were used for treatment of the cells, both consisting of a bank of 4 fluorescent tubes. […]
(§2) The cells were trypsinized, centrifuged, resuspended in 400 μl of culture medium and filtered through a 50 μm mesh nylon filter. Then the cells were analyzed by a FACS-Calibur (Becton Dickinson) flow cytometer. […] Fluorescein-fluorescence (for example green Fluorescent protein (GFP)) was measured through a 510-530 nm filter after excitation with an argon laser (200 mW) tuned on 488 nm. AlPcS2a was measured through a 670 nm longpass filter after excitation with a diode laser (50 mW) tuned on 635 nm. […] The data were analysed with CELLQuest Software (Becton Dickinson).
THX cells were treated with 20 μg/ml AlPcS2a for 18 hours, washed and incubated in sensitizer-free medium for 3 hours followed by 1 hour incubation with 5 μg pEGFP-N1/polylysine complex before light exposure for 1, 2, 3 or 4 minutes. […] GFP expression was analysed by flow cytometry 48 hours after light exposure. […]
THX cells were treated with 20 μg/ml AlPcS2a for 18 hours, washed and incubated in sensitizer-free medium for 4 hours before 3 minutes of light treatment. […] GFP expression was analysed by flow cytometry 48 hours after light exposure. […]

HCT 116 cells [2] = assay: Light-induced (PCI) transfection of HCT 116 cells with pEGFP-N1/polylysine complex, GFP expression by flow cytometry; format: cell-based, human
Description: as §1
Two different light sources were used for treatment of the cells, both consisting of a bank of 4 fluorescent tubes. Cells treated with TPPS4, TPPS2a, and 3-THPP (Porphyrin Products, Logan, Utah) were exposed to blue light (model 3026; Appl. Photophysics, London, UK) with a light intensity reaching the cells of 1.5 mW/cm^2 while cells treated with AlPcS2a (Porphyrin Products, Logan, Utah) were exposed to red light (Philips TL 20W/09) filtered through a Cinemoid 35 filter with a light intensity reaching the cells of 1.35 mW/cm^2.
[…] The cells were treated with pEGFP-N1 polylysine complex for 4 hours immediately before or after exposure to light. […]
as §2
The cells were treated with pEGFP-N1/polylysine complex for 4 hours immediately before or after exposure to light as indicated on FIG. 2. The expression of GFP was measured by flow cytometry 2 days after the light exposure. […]

HCT 116 cells [3] = assay: Gelonin toxicity after photochemical treatment, protein synthesis by [3H]-leucine incorporation, HCT 116 cells; format: cell-based, human; settings: 1 μg/ml gelonin 18 h
Description: (§3) For the treatment with gelonin 25×10^3 cells per well were seeded out into 24-well plates (Nunc, Denmark). The next day 20 μg/ml AlPcS2a was added, and the cells were incubated for 18 h at 37° C. All the procedures after AlPcS2a addition were carried out in subdued light. For the “light before” strategy, the cells were washed from AlPcS2a and incubated in AlPcS2a-free medium for 4 h. Then the cells were exposed to light (as indicated in the figures) before the treatment with 1 μg/ml gelonin for 18 h. For the “light after” strategy the cells were co-incubated with 20 μg/ml AlPcS2a and 1 μg/ml gelonin for 18 h, and washed before exposure to light as indicated in the figure.
(§4) Non-illuminated cells were treated in a similar way except for illumination. The treated cells were washed once with culture medium and after addition of fresh medium incubated at 37° C. before further analysis. Inhibition of protein synthesis was assayed by [^3H]-leucine incorporation into protein 24 h after light exposure. Illumination was performed from a bench with four light tubes (Philips TL 20W/09) and a long pass filter with a cut off at 550-600 nm. The light intensity reaching the cells was 13.5 W/m^2.

THX cells [4] = assay: Gelonin toxicity after photochemical treatment, protein synthesis by [3H]-leucine incorporation, THX cells; format: cell-based, human
Description: THX cells were incubated with 20 μg/ml AlPcS2a for 18 hours followed by 4 hours in sensitizer-free medium before exposure to light. The cells were either co-treated with AlPcS2a and 1 μg/ml gelonin, or gelonin (1 μg/ml) was added to the medium immediately after light exposure for 18 hours after which it was removed from the medium as indicated on FIG. 3. Protein synthesis was measured 24 hours after light exposure.
as §3, §4

[5] = test system: WiDr human adenocarcinoma; assay: PCI with gelonin for treatment of tumours in a mouse in vivo model; set-up: species or system Balb/c (nu/nu) mice; settings: for effect on tumour cure, in words: gelonin alone; for % TUMOUR-FREE MICE 30 DAYS AFTER ILLUMINATION / FRACTION TUMOUR-FREE MICE 30 DAYS AFTER ILLUMINATION: AlPcS2a 10 mg/kg i.p., gelonin 50 μg intratumorally where given
Description: Water and food was given ad libitum. All procedures involving mice were carried out in agreement with the protocols approved by the animal care committee at the Norwegian Radium Hospital, under control by the National Ethical Committee's guidelines on animal welfare. The mice were on average 20-25 g (5-8 weeks old) at the start of the experiments, and we used at least 5 mice per experiment group. The WiDr human adenocarcinoma used in the present study, was propagated by serial transplantation into the Balb/c (nu/nu) mice. The tumours were minced to homogeneity by a scalpel and 20 μl of the solution injected subcutaneously on the right hip of each mouse. The tumour size was measured two or three times per week by measuring two perpendicular diameters. Tumour volume was calculated using the following formula: V=(W^2×L)/2 where W is the width and L the length diameters of the tumours measured. Treatment
A stock solution of AlPcS2a was diluted to 1.25 mg/ml in PBS and injected intraperitoneally to a final concentration of 10 mg/kg when the tumours had reached a volume of approximately 100 mm^3. 48 h after the injection of AlPcS2a the tumours were exposed for 16 min to red light (see below). Immediately after light exposure gelonin (50 μg total amount in a 2 mg/ml solution, i.e. 25 μl) was injected intratumorally. The mice were kept in the dark for 1 week after the injection of AlPcS2a.
The tumours were illuminated with a 150 W halogen lamp (Xenophot HLX64640) filtered with a 580 nm long pass and a 700 nm short pass filter emitting 150 mW/cm^2. The animals were covered with aluminium foil except above the tumour area where a hole in the foil with a diameter 2 mm larger than the tumour diameter had been made. The tumours were exposed to 145 J/cm^2 of light. Tumour volumes were measured two or three times per week as described above. Mice were killed when the tumours reach a diameter of approximately 20 mm. The fraction of tumour-free mice 30 days after illumination was scored (Table 1), and the mean tumour volume in each treatment group was recorded (FIG. 25).

[6] = with light (145 J/cm^2; "light before" gelonin)

Oc1cccc(-c2c3nc(c(-c4cccc(O)c4)c4ccc([nH]4)c(-c4cccc(O)c4)c4nc(c(-c5cccc(O)c5)c5ccc2[nH]5)C=C4)C=C3)c1 [3-THPP]
increase in GFP expression with this photosensitizer (THX cells [1]; 0.25 μg/ml 3-THPP 18 h, light before 1 h pEGFP-N1/polylysine complex): only a minor increase in GFP expression

O=S(=O)(O)c1ccc(-c2c3nc(c(-c4ccc(S(=O)(=O)O)cc4)c4ccc([nH]4)c(-c4ccccc4)c4nc(c(-c5ccccc5)c5ccc2[nH]5)C=C4)C=C3)cc1 [TPPS2a, Tetraphenylporphine disulfonate]
"light before" approach compared with "light after" approach, poly-L-lysine mediated transfection (THX cells [1]): works as well as
"light before" approach compared with "light after" approach, poly-L-lysine mediated transfection (HCT 116 cells [2]; HCT 116 cells, TPPS2a, pEGFP-N1/PLL complex 4 h): works as well as

O=S(=O)(O)c1ccc(-c2c3nc(c(-c4ccc(S(=O)(=O)O)cc4)c4ccc([nH]4)c(-c4ccc(S(=O)(=O)O)cc4)c4nc(c(-c5ccc(S(=O)(=O)O)cc5)c5ccc2[nH]5)C=C4)C=C3)cc1 [TPPS4]
"light before" approach compared with "light after" approach, poly-L-lysine mediated transfection (THX cells [1]): works slightly better
"light before" approach compared with "light after" approach, poly-L-lysine mediated transfection (HCT 116 cells [2]; 75 μg/ml TPPS4, text prints THX cells, heading and FIG. 19 HCT 116 cells): works as well as

Gelonin: plant toxin which efficiently inhibits protein synthesis when it is present in the cytosol of cells
toxic effect of gelonin in itself without the PCI treatment (HCT 116 cells [3]): no toxic effect
"light before" strategy compared with "light after" method, inhibition of protein synthesis (HCT 116 cells [3]; 20 μg/ml AlPcS2a): works better
toxic effect of gelonin in itself without the PCI treatment (THX cells [4]; 1 μg/ml gelonin 18 h): no toxic effect
inhibition of protein synthesis compared with photochemical treatment in the absence of gelonin (THX cells [4]; 1 μg/ml gelonin before or after photochemical treatment (20 μg/ml AlPcS2a + light), 24 h after light): significantly greater inhibition of protein synthesis
"light before" strategy compared with "light after" method, inhibition of protein synthesis (THX cells [4]; 20 μg/ml AlPcS2a, 1 μg/ml gelonin 18 h): works better
inhibition of protein synthesis, "light before" relative to "light after" (THX cells [4]; highest light dose): about 3 fold
effect on tumour cure, in words ([5]; with additional light treatment, without AlPcS2a (group 4)): no effect
effect on tumour cure, in words ([5]; without light (group 3)): no effect
% TUMOUR-FREE MICE 30 DAYS AFTER ILLUMINATION [5, 6]: 0%
FRACTION TUMOUR-FREE MICE 30 DAYS AFTER ILLUMINATION [5, 6]: 0/5
tumour growth (mean tumour volume) ([5]; without light): grew as fast as in animals given a placebo treatment
% TUMOUR-FREE MICE 30 DAYS AFTER ILLUMINATION ([5]; without light): 0%
FRACTION TUMOUR-FREE MICE 30 DAYS AFTER ILLUMINATION ([5]; without light): 0/8

poly-D-lysine
PCI with the "light before" protocol, poly-D-lysine as transfection agent (HCT 116 cells [2]; HCT 116 cells, complex with pEGFP-N1, variable irradiation times): works well

Reference: US8008077B2, “Photochemical internalization for delivery of molecules into the cytosol” (priority 2000, dated 2011)
